According to ChEMBL document CHEMBL3991601, “The target landscape of clinical kinase drugs” (Science, 2017):
Structures can show the parent of a compound that is named as a salt. Activity calls are given as the source filed them.

Tests used:
Actin-related protein 2 = Actin-related protein 2 (Homo sapiens, UniProt P61160)
Adenosine kinase = Adenosine kinase (Homo sapiens, UniProt P55263)
[1] = target: RAC-gamma serine/threonine-protein kinase (Homo sapiens, UniProt Q9Y243)
Deoxycytidine kinase = Deoxycytidine kinase (Homo sapiens, UniProt P27707)
Sequence of Deoxycytidine kinase (P27707 whole entry): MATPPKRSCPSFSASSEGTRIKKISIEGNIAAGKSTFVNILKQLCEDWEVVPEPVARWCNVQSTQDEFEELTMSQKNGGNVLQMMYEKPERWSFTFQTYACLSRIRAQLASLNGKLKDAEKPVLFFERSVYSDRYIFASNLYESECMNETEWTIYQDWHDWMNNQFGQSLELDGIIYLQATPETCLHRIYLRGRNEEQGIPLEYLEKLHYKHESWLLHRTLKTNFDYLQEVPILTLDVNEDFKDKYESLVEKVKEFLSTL

Ephrin type-A receptor 4 = Ephrin type-A receptor 4 (Homo sapiens, UniProt P54764)
Sequence of Ephrin type-A receptor 4 (P54764 whole entry): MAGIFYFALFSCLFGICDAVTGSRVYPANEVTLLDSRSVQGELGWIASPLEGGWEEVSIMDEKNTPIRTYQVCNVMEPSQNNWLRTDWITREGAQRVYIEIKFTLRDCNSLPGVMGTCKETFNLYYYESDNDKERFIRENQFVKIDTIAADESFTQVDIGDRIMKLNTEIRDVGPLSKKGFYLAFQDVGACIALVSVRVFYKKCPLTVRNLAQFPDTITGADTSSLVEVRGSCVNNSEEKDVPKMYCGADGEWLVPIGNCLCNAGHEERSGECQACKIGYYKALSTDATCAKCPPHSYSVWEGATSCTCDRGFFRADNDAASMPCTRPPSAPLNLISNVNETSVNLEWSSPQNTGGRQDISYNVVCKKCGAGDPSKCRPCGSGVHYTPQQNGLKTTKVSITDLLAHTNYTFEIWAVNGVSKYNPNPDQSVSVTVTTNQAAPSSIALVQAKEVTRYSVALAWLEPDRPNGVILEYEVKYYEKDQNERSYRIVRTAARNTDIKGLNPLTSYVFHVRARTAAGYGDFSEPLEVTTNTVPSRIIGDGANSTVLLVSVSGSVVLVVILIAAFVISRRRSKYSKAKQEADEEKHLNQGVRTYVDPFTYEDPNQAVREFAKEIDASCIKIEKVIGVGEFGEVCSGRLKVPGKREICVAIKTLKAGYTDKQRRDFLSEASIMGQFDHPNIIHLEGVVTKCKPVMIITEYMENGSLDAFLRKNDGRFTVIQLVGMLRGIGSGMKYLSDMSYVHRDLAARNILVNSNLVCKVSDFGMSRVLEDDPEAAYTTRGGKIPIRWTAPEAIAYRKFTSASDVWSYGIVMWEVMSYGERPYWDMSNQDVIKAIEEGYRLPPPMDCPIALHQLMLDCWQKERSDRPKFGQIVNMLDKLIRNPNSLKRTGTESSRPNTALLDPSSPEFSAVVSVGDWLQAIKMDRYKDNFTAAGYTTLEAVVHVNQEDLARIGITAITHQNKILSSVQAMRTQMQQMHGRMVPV

[2] = target: T1, Ferrochelatase, mitochondrial (Homo sapiens, UniProt P22830)
T1 sequence (P22830 whole entry): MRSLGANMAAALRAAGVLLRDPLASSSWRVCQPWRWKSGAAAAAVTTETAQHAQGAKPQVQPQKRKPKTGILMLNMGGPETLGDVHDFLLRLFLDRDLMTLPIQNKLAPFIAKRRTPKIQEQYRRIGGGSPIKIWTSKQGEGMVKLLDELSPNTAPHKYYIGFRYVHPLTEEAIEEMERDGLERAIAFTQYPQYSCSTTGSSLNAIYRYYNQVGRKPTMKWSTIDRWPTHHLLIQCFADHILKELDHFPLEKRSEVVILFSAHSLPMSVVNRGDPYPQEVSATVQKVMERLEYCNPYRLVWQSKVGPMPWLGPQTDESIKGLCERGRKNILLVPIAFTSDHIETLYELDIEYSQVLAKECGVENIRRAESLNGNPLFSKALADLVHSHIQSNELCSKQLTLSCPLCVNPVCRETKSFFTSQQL

[3] = target: Putative heat shock protein HSP 90-beta 2 (Homo sapiens, UniProt Q58FF8)
Sequence of Putative heat shock protein HSP 90-beta 2 (Q58FF8 whole entry): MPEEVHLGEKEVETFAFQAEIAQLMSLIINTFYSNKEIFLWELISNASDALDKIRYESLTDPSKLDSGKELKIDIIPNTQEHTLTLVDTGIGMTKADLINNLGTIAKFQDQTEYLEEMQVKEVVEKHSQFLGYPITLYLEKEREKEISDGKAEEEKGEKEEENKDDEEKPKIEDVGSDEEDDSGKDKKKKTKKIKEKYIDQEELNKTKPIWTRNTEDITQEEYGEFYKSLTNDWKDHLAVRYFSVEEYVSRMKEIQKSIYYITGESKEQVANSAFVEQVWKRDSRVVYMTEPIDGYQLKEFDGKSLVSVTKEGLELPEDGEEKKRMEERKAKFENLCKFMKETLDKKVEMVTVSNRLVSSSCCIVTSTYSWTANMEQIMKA

[4] = target: T2, Mitogen-activated protein kinase 15 (Homo sapiens, UniProt Q8TD08)
T2 sequence (Q8TD08 whole entry): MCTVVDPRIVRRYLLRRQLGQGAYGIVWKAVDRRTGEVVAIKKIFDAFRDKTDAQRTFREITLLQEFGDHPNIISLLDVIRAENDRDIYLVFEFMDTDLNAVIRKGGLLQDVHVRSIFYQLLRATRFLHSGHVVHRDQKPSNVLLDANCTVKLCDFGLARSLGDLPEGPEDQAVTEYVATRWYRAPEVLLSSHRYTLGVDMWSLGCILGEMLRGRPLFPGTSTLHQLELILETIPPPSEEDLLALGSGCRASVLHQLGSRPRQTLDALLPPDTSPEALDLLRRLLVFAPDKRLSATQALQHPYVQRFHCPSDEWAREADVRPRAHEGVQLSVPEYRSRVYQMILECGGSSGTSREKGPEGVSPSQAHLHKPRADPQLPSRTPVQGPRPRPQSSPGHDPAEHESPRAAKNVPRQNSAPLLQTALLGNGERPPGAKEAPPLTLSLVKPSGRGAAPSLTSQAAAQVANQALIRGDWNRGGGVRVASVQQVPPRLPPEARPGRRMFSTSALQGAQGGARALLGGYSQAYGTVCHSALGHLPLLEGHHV

[5] = target: Serine/threonine-protein kinase PAK 4 (Homo sapiens, UniProt O96013)
Sequence of Serine/threonine-protein kinase PAK 4 (O96013 whole entry): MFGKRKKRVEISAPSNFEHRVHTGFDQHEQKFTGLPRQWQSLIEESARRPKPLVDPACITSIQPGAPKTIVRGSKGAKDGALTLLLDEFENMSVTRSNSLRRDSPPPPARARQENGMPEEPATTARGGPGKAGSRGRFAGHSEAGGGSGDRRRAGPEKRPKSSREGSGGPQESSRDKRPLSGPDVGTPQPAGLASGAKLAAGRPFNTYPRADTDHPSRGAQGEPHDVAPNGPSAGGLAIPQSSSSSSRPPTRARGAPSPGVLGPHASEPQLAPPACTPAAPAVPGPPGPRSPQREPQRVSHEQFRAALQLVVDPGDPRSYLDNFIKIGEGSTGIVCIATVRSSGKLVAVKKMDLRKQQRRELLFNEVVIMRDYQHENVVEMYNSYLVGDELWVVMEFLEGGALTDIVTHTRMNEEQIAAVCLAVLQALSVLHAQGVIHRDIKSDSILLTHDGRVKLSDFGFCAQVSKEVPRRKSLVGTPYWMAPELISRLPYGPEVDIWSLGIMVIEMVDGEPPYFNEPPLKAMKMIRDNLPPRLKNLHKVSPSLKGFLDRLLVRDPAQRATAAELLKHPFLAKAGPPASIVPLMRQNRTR

[6] = target: T3, Serine/threonine-protein kinase TAO2 (Homo sapiens, UniProt Q9UL54)
T3 sequence (Q9UL54 whole entry): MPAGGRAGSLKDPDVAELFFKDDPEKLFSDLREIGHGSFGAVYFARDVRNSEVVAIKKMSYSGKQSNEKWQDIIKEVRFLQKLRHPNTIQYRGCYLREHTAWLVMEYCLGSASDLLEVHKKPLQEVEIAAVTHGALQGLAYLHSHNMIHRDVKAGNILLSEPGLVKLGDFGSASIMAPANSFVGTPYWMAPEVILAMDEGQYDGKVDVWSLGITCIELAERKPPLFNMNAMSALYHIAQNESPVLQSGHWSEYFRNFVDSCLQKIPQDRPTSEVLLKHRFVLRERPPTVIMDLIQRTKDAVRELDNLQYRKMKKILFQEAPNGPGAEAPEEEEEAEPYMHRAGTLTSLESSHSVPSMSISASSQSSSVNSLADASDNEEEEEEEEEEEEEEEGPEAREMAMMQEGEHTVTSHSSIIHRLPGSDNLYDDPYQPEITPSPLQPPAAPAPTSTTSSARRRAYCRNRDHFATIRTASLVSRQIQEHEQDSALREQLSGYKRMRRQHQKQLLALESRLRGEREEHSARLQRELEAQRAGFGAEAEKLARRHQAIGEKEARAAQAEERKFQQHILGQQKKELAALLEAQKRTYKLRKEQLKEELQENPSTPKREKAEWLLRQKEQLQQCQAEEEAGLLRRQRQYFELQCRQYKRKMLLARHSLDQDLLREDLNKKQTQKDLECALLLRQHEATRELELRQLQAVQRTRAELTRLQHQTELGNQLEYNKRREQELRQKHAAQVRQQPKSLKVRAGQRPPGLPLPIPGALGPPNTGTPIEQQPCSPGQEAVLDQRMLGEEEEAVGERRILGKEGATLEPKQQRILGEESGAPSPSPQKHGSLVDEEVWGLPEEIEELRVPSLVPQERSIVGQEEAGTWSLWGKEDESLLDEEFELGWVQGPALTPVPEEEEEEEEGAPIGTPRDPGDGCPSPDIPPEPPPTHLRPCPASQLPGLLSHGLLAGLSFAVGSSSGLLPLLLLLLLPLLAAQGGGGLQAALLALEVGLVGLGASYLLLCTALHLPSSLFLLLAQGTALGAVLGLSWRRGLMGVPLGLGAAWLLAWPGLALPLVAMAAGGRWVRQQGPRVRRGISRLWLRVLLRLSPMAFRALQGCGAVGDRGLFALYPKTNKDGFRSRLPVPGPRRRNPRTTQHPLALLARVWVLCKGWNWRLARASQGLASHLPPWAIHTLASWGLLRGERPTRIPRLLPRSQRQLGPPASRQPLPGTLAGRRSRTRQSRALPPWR
Note: in the data inactive means no Kd found up to 30 µM.

Sequence of RAC-gamma serine/threonine-protein kinase (Q9Y243 whole entry): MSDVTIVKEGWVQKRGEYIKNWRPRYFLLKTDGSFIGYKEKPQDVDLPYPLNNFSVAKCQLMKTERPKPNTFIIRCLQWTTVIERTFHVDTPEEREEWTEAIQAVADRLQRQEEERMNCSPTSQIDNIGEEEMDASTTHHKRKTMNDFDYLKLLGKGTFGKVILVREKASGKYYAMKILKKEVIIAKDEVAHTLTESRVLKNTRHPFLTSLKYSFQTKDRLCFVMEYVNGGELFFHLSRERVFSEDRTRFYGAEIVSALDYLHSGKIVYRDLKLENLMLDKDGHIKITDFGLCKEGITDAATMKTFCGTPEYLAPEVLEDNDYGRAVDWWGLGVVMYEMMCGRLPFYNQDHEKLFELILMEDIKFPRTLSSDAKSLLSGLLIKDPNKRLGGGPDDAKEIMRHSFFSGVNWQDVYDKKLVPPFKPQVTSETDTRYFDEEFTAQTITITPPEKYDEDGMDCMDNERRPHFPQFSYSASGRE
Sequence of Adenosine kinase (P55263 whole entry): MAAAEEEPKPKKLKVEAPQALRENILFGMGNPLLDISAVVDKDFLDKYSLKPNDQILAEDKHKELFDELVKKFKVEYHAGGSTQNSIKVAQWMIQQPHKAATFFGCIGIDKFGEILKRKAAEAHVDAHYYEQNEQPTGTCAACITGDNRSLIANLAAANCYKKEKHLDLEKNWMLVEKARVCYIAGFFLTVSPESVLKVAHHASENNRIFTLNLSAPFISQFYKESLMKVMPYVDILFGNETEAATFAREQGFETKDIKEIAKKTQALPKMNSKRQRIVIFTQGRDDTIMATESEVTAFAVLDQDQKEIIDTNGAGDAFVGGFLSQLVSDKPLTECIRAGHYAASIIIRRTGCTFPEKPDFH

Compound | Kd (Actin-related protein 2) | Kd (Adenosine kinase) | Kd [1] | Kd (Deoxycytidine kinase) | Kd (Ephrin type-A receptor 4) | Kd [2] | Kd [3] | Kd [4] | Kd [5] | Kd [6]
C=CC(=O)N1CCC[C@H](n2c(=O)n(-c3ccc(Oc4ccccc4)cc3)c3c(N)ncnc32)C1 | > 30 µM (inactive) | > 30 µM (inactive) | > 30 µM (inactive) | > 30 µM (inactive) | > 30 µM (inactive) | > 30 µM (inactive) | > 30 µM (inactive) | > 30 µM (inactive) | > 30 µM (inactive) | > 30 µM (inactive)
Cc1nc2cc(-c3nn(C(C)C)c4ncnc(N)c34)ccc2o1 | > 30 µM (inactive) | > 30 µM (inactive) | > 30 µM (inactive) | 6.17 µM | > 30 µM (inactive) | > 30 µM (inactive) | > 30 µM (inactive) | > 30 µM (inactive) | > 30 µM (inactive) | 1.73 µM (active)
COCc1c(-c2ccc(NC(=O)Nc3cc(C(F)(F)F)ccc3F)c(F)c2)c2c(N)ncnn2c1CN1CCOCC1 | > 30 µM (inactive) | > 30 µM (inactive) | > 30 µM (inactive) | > 30 µM (inactive) | > 30 µM (inactive) | > 30 µM (inactive) | > 30 µM (inactive) | > 30 µM (inactive) | > 30 µM (inactive) | > 30 µM (inactive)
Nc1ncnc2c1c(-c1cccc(OCc3ccccc3)c1)cn2[C@H]1C[C@@H](CN2CCC2)C1 [AEW-541] | > 30 µM (inactive) | > 30 µM (inactive) | > 30 µM (inactive) | > 30 µM (inactive) | > 30 µM (inactive) | 6.5 µM (active) | > 30 µM (inactive) | > 30 µM (inactive) | > 30 µM (inactive) | > 30 µM (inactive)
Cc1nc(NC(=O)N2CCC[C@H]2C(N)=O)sc1-c1ccnc(C(C)(C)C(F)(F)F)c1 [ALPELISIB] | > 30 µM (inactive) | > 30 µM (inactive) | > 30 µM (inactive) | > 30 µM (inactive) | > 30 µM (inactive) | > 30 µM (inactive) | > 30 µM (inactive) | > 30 µM (inactive) | > 30 µM (inactive) | > 30 µM (inactive)
Cc1csc(-c2nnc(Nc3ccc(Oc4ncccc4-c4ccnc(N)n4)cc3)c3ccccc23)c1 [AMG-900] | > 30 µM (inactive) | > 30 µM (inactive) | > 30 µM (inactive) | > 30 µM (inactive) | > 30 µM (inactive) | > 30 µM (inactive) | > 30 µM (inactive) | > 30 µM (inactive) | > 30 µM (inactive) | > 30 µM (inactive)
C=CC(=O)Nc1cc2c(Nc3ccc(F)c(Cl)c3)ncnc2cc1C#CC(C)(C)N1CCN(C)CC1 [AV-412 FREE BASE] | > 30 µM (inactive) | > 30 µM (inactive) | > 30 µM (inactive) | > 30 µM (inactive) | > 30 µM (inactive) | > 30 µM (inactive) | > 30 µM (inactive) | > 30 µM (inactive) | > 30 µM (inactive) | > 30 µM (inactive)
COc1cc([C@@H]2c3cc4c(cc3[C@H](O)[C@H]3COC(=O)[C@@H]23)OCO4)cc(OC)c1OC [AXL-1717] | > 30 µM (inactive) | > 30 µM (inactive) | > 30 µM (inactive) | > 30 µM (inactive) | > 30 µM (inactive) | > 30 µM (inactive) | > 30 µM (inactive) | > 30 µM (inactive) | > 30 µM (inactive) | > 30 µM (inactive)
CCS(=O)(=O)N1CCN(c2ccc(Nc3ncc(C(N)=O)c(NC4CC4)n3)cc2)CC1 [Cerdulatinib Hydrochloride] | – | – | > 30 µM (inactive) | > 30 µM (inactive) | > 30 µM (inactive) | > 30 µM (inactive) | > 30 µM (inactive) | > 30 µM (inactive) | 0.851 µM (active) | 2.22 µM (active)
Cc1nc2cc(-n3ncc(C(=O)c4cc5ccccc5[nH]4)c3N)ccc2[nH]1 [FGFR INHIBITOR DEBIO 1347] | > 30 µM (inactive) | – | > 30 µM (inactive) | > 30 µM (inactive) | > 30 µM (inactive) | > 30 µM (inactive) | > 30 µM (inactive) | > 30 µM (inactive) | > 30 µM (inactive) | > 30 µM (inactive)
CCn1cc(-c2ccnc3[nH]c(-c4cccc(CN(C)C)c4)cc23)c(-c2ccc(NC(=O)N(C)C)cc2)n1 [GSK-1070916] | > 30 µM (inactive) | > 30 µM (inactive) | 3.29 µM (active) | 2.16 µM (active) | > 30 µM (inactive) | 2.41 µM (active) | > 30 µM (inactive) | > 30 µM (inactive) | > 30 µM (inactive) | –
CNC(=O)c1nn(C)c2c1C(C)(C)Cc1cnc(Nc3ccc(N4CCN(C)CC4)cc3)nc1-2 [MILCICLIB] | – | > 30 µM (inactive) | > 30 µM (inactive) | > 30 µM (inactive) | 8.13 µM (active) | > 30 µM (inactive) | > 30 µM (inactive) | > 30 µM (inactive) | > 30 µM (inactive) | 5.25 µM (active)
CCOc1cc2ncc(C#N)c(Nc3ccc(F)c(Cl)c3)c2cc1NC(=O)/C=C/CN(C)C [PELITINIB] | > 30 µM (inactive) | > 30 µM (inactive) | > 30 µM (inactive) | > 30 µM (inactive) | > 30 µM (inactive) | 10.5 µM (active) | – | > 30 µM (inactive) | > 30 µM (inactive) | > 30 µM (inactive)
CO[C@H]1C[C@@H]2CC[C@@H](C)[C@@](O)(O2)C(=O)C(=O)N2CCCC[C@H]2C(=O)O[C@H]([C@H](C)C[C@@H]2CC[C@@H](OP(C)(C)=O)[C@H](OC)C2)CC(=O)[C@H](C)/C=C(\C)[C@@H](O)[C@@H](OC)C(=O)[C@H](C)C[C@H](C)/C=C/C=C/C=C/1C [RIDAFOROLIMUS] | > 30 µM (inactive) | > 30 µM (inactive) | > 30 µM (inactive) | > 30 µM (inactive) | > 30 µM (inactive) | > 30 µM (inactive) | – | > 30 µM (inactive) | > 30 µM (inactive) | > 30 µM (inactive)
CC(C)c1cc(CNc2nc(Nc3cc(C4CC4)[nH]n3)cc(N3CCN(C)CC3)n2)on1 [XL-228] | > 30 µM (inactive) | – | > 30 µM (inactive) | > 30 µM (inactive) | 0.167 µM (active) | > 30 µM (inactive) | > 30 µM (inactive) | > 30 µM (inactive) | 50.4 µM | > 30 µM (inactive)
